Several values for one entry are separate records, joined by “and”; a condition that tells them apart may be missing. Equal entries are not always repeated. Where two headings read alike, the source gives them in different places.
Experiments:
scopolamine-treated rats = experiment: Two-trial object recognition paradigm in scopolamine-treated rats; assay type: in vivo, Sprague-Dawley rats; conditions: for Memory Performance (N-F, difference in time spent with the novel object and familiar object): scopolamine 0.3 mg/kg i.p., mean ± SEM
Protocol: The two-trial object recognition paradigm developed by Ennaceur and Delacour in the rat was used as a model of episodic memory.
Male Sprague-Dawley rats between six and seven weeks old, weighing between 220-300 grams were obtained from Centre d′Elevage (Rue Janvier, B.P. 55, Le Genest-Saint-Isle 53940, France). The animals were housed in groups of 2 to 4 in polypropylene cages (with a floor area of 1032 cm^2) under standard conditions: at room temperature (22±2° C.), under a 12 hour light/12 hour dark cycle, with food and water provided ad libitum. Animals were permitted to acclimate to environmental conditions for at least 5 days before therapy begins, and were numbered on their tails with indelible marker.
The experimental arena was a square wooden box (60 cm×60 cm×40 cm) painted dark blue, with 15 cm×15 cm black squares under a clear plexiglass floor. The arena and objects placed inside the arena were cleaned with water between each trial to eliminate any odor trails left by rats. The arena was placed in a dark room illuminated only by halogen lamps directed towards the ceiling in order to produce a uniformly dim light in the box of approximately 60 lux. The day before testing, animals were allowed to freely explore the experimental arena for three minutes in the presence of two objects (habituation). Animals to be tested were placed in the experimental room at least 30 minutes before testing.
On the day of the experiment, animals were submitted to two trials separated by an interval of 120 minutes. During the first, or acquisition, trial (T1), rats were placed in the arena, which was prepared with two identical objects. The time required for each animal to complete 15 seconds of object exploration was determined, with a cut-off time of four minutes. […] Rats were placed back in the arena for three minutes, and exploration of both objects was determined. Locomotor activity of rats (number of times rats cross grid lines visible under the clear plexiglass floor) was scored for during T1 and T2. […]
The following parameters were measured: (1) time required to achieve 15 seconds of object exploration during T1; (2) locomotor activity during T1 (number of crossed lines); (3) time spent in active exploration of the familiar object during T2 (TFamiliar); (4) time spent in active exploration of the novel object during T2 (TNovel); and (5) locomotor activity during T2 (number of crossed lines). The difference between time spent in active exploration of the novel object during T2 and time spent in active exploration of the familiar object during T2 (ΔTNovel−TFamiliar) was evaluated. The recognition index [(TNovel−TFamiliar/(TNovel+TFamiliar)] was derived, and the percentage of animals with TNovel−TFamiliar>5 seconds was assessed. […]

[1] = tested on: patients with mild to moderate Alzheimer's disease
Protocol: Patients were evaluated with the ADAS-cog (primary endpoint), CIBIC-plus, MMSE, NPI and ADL at baseline, week 12 and week 26. The Alzheimer's Disease Assessment Scale Cognitive Subscale (ADAS-cog) score assesses memory and cognition over time. The Mini Mental State Exam (MMSE) also assesses memory and cognition. The Alzheimer's Disease Cooperative Study-Clinical Global Impression of Change (ADCS-CGIC, also called CIBIC-plus) measures the patient's global status over time. It takes into account memory, cognition, behavior and motor disturbance. The Neuropsychiatric Inventory (NPI) measures the patients' behavior and psychiatric disturbance in 12 domains including delusions, hallucinations, agitation/aggression, depression/dysphoria, anxiety, elation/euphoria, apathy/indifference, disinhibitions, irritability/lability, motor disturbance, nighttime behaviors, and appetite/eating. An ADL inventory assesses the impact of cognitive impairment on activities of daily living. […] All subjects enrolled were included in the intention-to-treat analysis. Thus, the analysis includes all randomized patients, even those who discontinued the study prior to study completion.

amyloid beta 42 (Aβ42) = conditions: cultured human cells and animal models; cited from earlier work
[2] = tested on: human neuroblastoma SK-N-SH; conditions: cited from earlier work
[3] = tested on: release of acetylcholine from the cortex; conditions: microdialysis; cited from earlier work
[4] = week 26, dimebon 20 mg orally three times a day vs placebo

Cc1ccc2c(c1)c1c(n2CCc2ccc(C)nc2)CCN(C)C1.Cl.Cl [Dimebon, 2,8-dimethyl-5-(2-(6-methyl-3-pyridyl)-ethyl)-2,3,4,5-tetrahydro-1H-pyrido(4,3-b)indol dihydrochloride]
effect at doses below the maximally effective dose, tested individually (scopolamine-treated rats; dimebon 2.5 mg/kg oral, donepezil 0.03 mg/kg intraperitoneal): only partially effective | maximally effective dose (scopolamine-treated rats; oral): 5 mg/kg | Memory Performance (N-F, difference in time spent with the novel object and familiar object) (scopolamine-treated rats; vehicle i.p. + Dimebon 2.5 mg/kg p.o.): 2.57 ± 0.95 s | Memory Performance (N-F, difference in time spent with the novel object and familiar object) (scopolamine-treated rats; vehicle i.p. + Dimebon 5 mg/kg p.o.): 5.00 ± 2.09 s | all other gastrointestinal side effects combined ([1]; in vivo): < 3% | patients who experienced serious adverse events ([1]; in vivo): 3.4% | tolerability ([1]; in vivo): well-tolerated | patients who experienced serious adverse events ([1]; in vivo, po): 2.2% | most common adverse event: dry mouth ([1]; in vivo, dihydrochloride): 18% and 13.5% | ADL mean drug-placebo difference [1, 4]: 3.35 units | CIBIC-plus mean drug-placebo difference [1, 4]: 0.61 units | MMSE mean drug-placebo difference [1, 4]: 2.24 units | NPI mean drug-placebo difference [1, 4]: 3.57 units | ADAS-cog mean drug-placebo difference ([1]; week 26, dimebon 20 mg orally three times a day vs placebo, intention-to-treat): 4.0 units | change in the 5 endpoints, mean baseline scores compared with week 26 scores ([1]; week 26 vs baseline, ADAS-cog, CIBIC-plus, MMSE, NPI, ADL): significant improvements in all 5 endpoints | ADAS-cog mean drug-placebo difference ([1]; week 52, dimebon vs placebo): 6.9 units | ADL mean drug-placebo difference ([1]; week 52, dimebon vs placebo): 5.2 units | CIBIC-plus mean drug-placebo difference ([1]; week 52, dimebon vs placebo): 0.80 units | MMSE mean drug-placebo difference ([1]; week 52, dimebon vs placebo): 2.3 units | NPI mean drug-placebo difference ([1]; week 52, dimebon vs placebo): 3.5 units | change in the 5 endpoints, mean baseline scores compared with week 52 scores ([1]; week 52 vs baseline, ADAS-cog, CIBIC-plus, MMSE, NPI, ADL): improvements in all 5 endpoints

C[C@@H](C(=O)O)c1ccc(-c2ccccc2)c(F)c1 [Flurizan]
levels of amyloid beta 42 (Aβ42) (amyloid beta 42 (Aβ42)): reduces levels

C#CCN[C@@H]1CCc2ccc(OC(=O)N(C)CC)cc21 [Ladostigil]
apoptosis-induced levels of holo-APP protein [2]: reduces apoptosis-induced levels of holo-APP protein | phospho PKC and release of the nonamyloidogenic amyloid protein [2]: increases phospho PKC and the release of the nonamyloidogenic amyloid protein | apoptotic cell death ([2]; in response to long term culture): reduces apoptotic cell death

CN[C@@H](C)C/C=C/c1cncc(OC(C)C)c1 [TC-1734]
release of acetylcholine from the cortex [3]: enhances the release of acetylcholine
